Data published in EPA's ToxRefDB 2.

Legend:
dog [1] = details: Chronic toxicity, beagle, Oral, Capsule, dose end: 52 week, group: systemic
rat [2] = details: Peri- and post-natal toxicity study (Segment III), sprague dawley, Oral, Gavage/Intubation, dose end: 4 PND
mouse [3] = details: Carcinogenicity; cd1; Oral; Gavage/Intubation; dose end: 2 year; group: systemic; systemic / in life observation / body weight / body weight gain + systemic / in life observation / clinical signs / [other] + systemic / in …
rat [4] = details: Chronic toxicity, sprague dawley, Oral, Gavage/Intubation, dose end: 6 month, group: systemic
rabbit [5] = details: Prenatal developmental toxicity study, new zealand white, Oral, Gavage/Intubation, dose end: 18 GD, group: maternal
rat [6] = details: Peri- and post-natal toxicity study (Segment III), sprague dawley, Oral, Gavage/Intubation, dose end: 21 PND
rat [7] = details: Prenatal developmental toxicity study; sprague dawley; Oral; Gavage/Intubation; dose end: 15 GD; group: maternal; systemic / in life observation / clinical signs / salivation
mouse [8] = details: Subchronic oral toxicity in rodents, cd1, Gavage/Intubation, dose end: 94 days, group: systemic
rabbit [9] = details: Prenatal developmental toxicity study, new zealand white, Oral, Gavage/Intubation, dose end: 18 GD, group: maternal; remark: listed apart in the source
rat [10] = details: Fertility (Segment I), sprague dawley, Oral, Gavage/Intubation, dose end: 7 GD, group: parental
rat [11] = details: Sub-acute repeat dose toxicity, sprague dawley, Oral, Gavage/Intubation, dose end: 4 week, group: systemic
dog [12] = details: Chronic toxicity; beagle; Oral; Capsule; dose end: 6 month; group: systemic; systemic / clinical chemistry / triglycerides / triglycerides + systemic / in life observation / body weight / body weight gain + systemic…
rat [13] = details: Carcinogenicity; sprague dawley; Oral; Gavage/Intubation; dose end: 2 year; group: systemic; systemic / in life observation / body weight / body weight gain + systemic / in life observation / clinical signs / [other] + systemic / in …
rat [14] = details: Prenatal developmental toxicity study; sprague dawley; Oral; Gavage/Intubation; dose end: 15 GD; group: maternal; reproductive / reproductive performance / estrous cycle / corpora lutea + reproductive / reproductive performance / implantations / …
[15] = systemic / clinical chemistry / triglycerides / triglycerides + systemic / in life observation / body weight / body weight gain
[16] = systemic / clinical chemistry / triglycerides / triglycerides + systemic / in life observation / body weight / body weight gain + systemic…
[17] = group: maternal, reproductive / offspring survival early / birth index / live birth index
[18] = group: parental, systemic / in life observation / clinical signs / [other] + systemic / in life observation / clinical signs / labored respiration + systemic…
[19] = group: parental, systemic / in life observation / clinical signs / [other] + systemic / in life observation / clinical signs / salivation + systemic / in …
[20] = systemic / clinical chemistry / chloride / chloride + systemic / clinical chemistry / triglycerides / triglycerides + systemic / clinical …
[21] = reproductive / reproductive performance / aborted / aborted + reproductive / reproductive performance / postimplantation loss / …
[22] = group: maternal, reproductive / reproductive performance / reproductive performance other / NOS
[23] = group: maternal, reproductive / reproductive performance / reproductive performance other / NOS + reproductive / offspring survival early / litter viability …
[24] = group: offspring, systemic / in life observation / body weight / offspring (pup) weight
[25] = group: parental, systemic / in life observation / clinical signs / abnormal respiratory sounds + systemic / in life observation / clinical signs / emaciation…
[26] = group: parental, systemic / in life observation / mortality / mortality
[27] = systemic / clinical chemistry / calcium / calcium + systemic / clinical chemistry / cholesterol / cholesterol + systemic / clinical …
[28] = systemic / clinical chemistry / potassium / potassium + systemic / clinical chemistry / bilirubin / total bilirubin + systemic / clinical …
[29] = systemic / in life observation / body weight / body weight gain + systemic / in life observation / food consumption / food consumption
[30] = systemic / in life observation / food consumption / food consumption
[31] = systemic / in life observation / clinical signs / abnormal respiratory sounds + systemic / in life observation / clinical signs / urogenital…
[32] = systemic / in life observation / clinical signs / abnormal respiratory sounds + systemic / in life observation / food consumption / food …
[33] = systemic / clinical chemistry / potassium / potassium + systemic / clinical chemistry / sodium / sodium + systemic / in life observation / …
[34] = systemic / in life observation / clinical signs / motor activity

CCOC(=O)COc1ccc2c(c1)CC(NCC(O)c1cccc(Cl)c1)CC2.Cl (stereo not drawn)
LEL (dog [1]; [15]): 10 mg/kg/day | NEL (dog [1]; [15]): < 10 mg/kg/day | LOAEL (dog [1]; [16]): > 250 mg/kg/day | NOAEL (dog [1]; [16]): ≥ 250 mg/kg/day | LEL (rat [2]; [17]): 200 mg/kg/day | LOAEL (rat [2]; [17]): > 750 mg/kg/day | NEL (rat [2]; [17]): 50 mg/kg/day | NOAEL (rat [2]; [17]): ≥ 750 mg/kg/day | LOAEL (rat [2]; [18]): > 750 mg/kg/day | NOAEL (rat [2]; [18]): ≥ 750 mg/kg/day | LEL (rat [2]; [19]): 50 mg/kg/day | NEL (rat [2]; [19]): < 50 mg/kg/day | LEL (mouse [3]): 25 mg/kg/day | LOAEL (mouse [3]): > 100 mg/kg/day | NEL (mouse [3]): < 25 mg/kg/day | NOAEL (mouse [3]): ≥ 100 mg/kg/day | LOAEL (rat [4]; [20]): > 500 mg/kg/day | NOAEL (rat [4]; [20]): ≥ 500 mg/kg/day | LEL (rat [4]; [16]): 20 mg/kg/day | NEL (rat [4]; [16]): < 20 mg/kg/day | LOAEL (rabbit [5]; [21]): > 500 mg/kg/day | NEL (rabbit [5]; [21]): 50 mg/kg/day | NOAEL (rabbit [5]; [21]): ≥ 500 mg/kg/day | LEL (rabbit [5]; reproductive / reproductive performance / postimplantation loss / postimplantation loss): 160 mg/kg/day | LEL (rat [6]; [22]): 50 mg/kg/day | NEL (rat [6]; [22]): < 50 mg/kg/day | LOAEL (rat [6]; [23]): > 750 mg/kg/day | NOAEL (rat [6]; [23]): ≥ 750 mg/kg/day | LEL (rat [6]; [24]): 50 mg/kg/day | LOAEL (rat [6]; [24]): 200 mg/kg/day | NEL (rat [6]; [24]): < 50 mg/kg/day | NOAEL (rat [6]; [24]): 50 mg/kg/day | LOAEL (rat [6]; [25]): > 750 mg/kg/day | NOAEL (rat [6]; [25]): ≥ 750 mg/kg/day | LEL (rat [6]; [26]): 50 mg/kg/day | NEL (rat [6]; [26]): < 50 mg/kg/day | LEL (rat [7]): 200 mg/kg/day | LOAEL (rat [7]): > 750 mg/kg/day | NEL (rat [7]): 50 mg/kg/day | NOAEL (rat [7]): ≥ 750 mg/kg/day | LOAEL (mouse [8]; [27]): > 500 mg/kg/day | NOAEL (mouse [8]; [27]): ≥ 500 mg/kg/day | LEL (mouse [8]; [28]): 100 mg/kg/day | NEL (mouse [8]; [28]): < 100 mg/kg/day | LOAEL (rabbit [9]; [29]): > 500 mg/kg/day | NOAEL (rabbit [9]; [29]): ≥ 500 mg/kg/day | LEL (rabbit [9]; [30]): 50 mg/kg/day | NEL (rabbit [9]; [30]): < 50 mg/kg/day | LOAEL (rat [10]; [31]): > 750 mg/kg/day | NOAEL (rat [10]; [31]): ≥ 750 mg/kg/day | LEL (rat [10]; [32]): 50 mg/kg/day | NEL (rat [10]; [32]): < 50 mg/kg/day | LOAEL (rat [11]; [33]): > 500 mg/kg/day | NOAEL (rat [11]; [33]): ≥ 500 mg/kg/day | LEL (rat [11]; [34]): 20 mg/kg/day | NEL (rat [11]; [34]): < 20 mg/kg/day | LEL (dog [12]): 10 mg/kg/day | LOAEL (dog [12]): > 250 mg/kg/day | NEL (dog [12]): < 10 mg/kg/day | NOAEL (dog [12]): ≥ 250 mg/kg/day | LEL (rat [13]): 50 mg/kg/day | LOAEL (rat [13]): > 500 mg/kg/day | NEL (rat [13]): < 50 mg/kg/day | NOAEL (rat [13]): ≥ 500 mg/kg/day | LEL (rat [14]): 200 mg/kg/day | LOAEL (rat [14]): > 750 mg/kg/day | NEL (rat [14]): 50 mg/kg/day | NOAEL (rat [14]): ≥ 750 mg/kg/day
